# Literature values in US20040115233A1, “Composition for improving skin environment and clothes thereof” (priority 2001, published 2004).
# Assays:
# microorganisms = details: among components of tea tree oil
# [1] = system: patients with atopic diseases
Compound,antibacterial action (microorganisms),alleviating itching ([1]; patients with mild to medium atopic diseases (127 children and 240 adults)),serious cases in which the disease was improved ([1]; serious cases)
Cc1ccc(C(C)C)cc1 [paracimene],some antibacterial actions,,
CC1=CC=C(C(C)C)CC1 [α-terpinene],some antibacterial actions,,
CC1=CCC(C(C)(C)O)CC1 (stereo not drawn) [α-terpineol],some antibacterial actions,,
"CCCCCC=CCC=CCC=CCCCCC(=O)O [γ-linolenic acid, 6,9,12-octadecatrienic acid]",,effective for alleviating itching,116 of 179
CC1=CCC(C(C)C)=CC1 [γ-terpinene],some antibacterial actions,,
